Measurements from US12415793B2, “Modulators of TMEM16A for treating respiratory disease” (TMEM16A Limited, priority 2020, dated 2025).

Molecular target: T1, human TMEM16A (TMEM16Aabc variant) (Homo sapiens, UniProt Q5XXA6, DEL476-501)
T1 sequence (Q5XXA6 with tags, fused parts or gaps isoform Q5XXA6-5 DEL539-564): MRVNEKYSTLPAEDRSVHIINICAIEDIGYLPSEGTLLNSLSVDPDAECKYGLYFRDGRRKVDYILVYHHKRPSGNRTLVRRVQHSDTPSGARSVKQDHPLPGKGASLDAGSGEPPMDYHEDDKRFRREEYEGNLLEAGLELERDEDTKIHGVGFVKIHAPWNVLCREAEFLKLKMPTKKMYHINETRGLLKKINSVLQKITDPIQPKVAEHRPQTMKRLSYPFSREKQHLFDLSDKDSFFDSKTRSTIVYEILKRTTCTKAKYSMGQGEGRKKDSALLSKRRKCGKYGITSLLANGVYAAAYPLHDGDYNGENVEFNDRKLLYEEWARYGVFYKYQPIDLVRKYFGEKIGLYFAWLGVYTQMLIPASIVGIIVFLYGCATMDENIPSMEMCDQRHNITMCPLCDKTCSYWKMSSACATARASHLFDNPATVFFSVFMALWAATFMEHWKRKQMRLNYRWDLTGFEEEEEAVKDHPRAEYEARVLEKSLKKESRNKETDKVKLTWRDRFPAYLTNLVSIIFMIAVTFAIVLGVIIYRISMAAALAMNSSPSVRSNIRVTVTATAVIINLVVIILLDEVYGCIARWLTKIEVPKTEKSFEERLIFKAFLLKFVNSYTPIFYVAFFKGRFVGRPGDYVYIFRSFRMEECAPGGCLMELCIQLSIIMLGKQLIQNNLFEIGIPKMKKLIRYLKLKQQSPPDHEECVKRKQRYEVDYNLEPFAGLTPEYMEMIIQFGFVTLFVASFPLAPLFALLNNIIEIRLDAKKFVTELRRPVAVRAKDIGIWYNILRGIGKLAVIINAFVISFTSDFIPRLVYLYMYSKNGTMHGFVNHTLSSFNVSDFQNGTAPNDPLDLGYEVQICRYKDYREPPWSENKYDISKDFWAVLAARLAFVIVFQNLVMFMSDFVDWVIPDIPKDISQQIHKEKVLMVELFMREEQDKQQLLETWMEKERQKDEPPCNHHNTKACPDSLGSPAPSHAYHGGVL
Experiment: Automated whole-cell patch clamp (Qpatch) assay to detect TMEM16A activity in recombinant cells
Type: cell-based
Details: for activation at 3.33 µM: 3.33 μM solution of test compound, percentage increase of baseline TMEM16A current, FRT cells stably expressing human TMEM16A, intracellular calcium at EC20, +70 mV, read-out: % Potentiation @ 3.33 μM Avg; for EC50: calculated from cumulative concentration response curve, FRT-TMEM16A cells, whole-cell patch clamp (Qpatch)
Protocol: Automated Whole-Cell Patch Clamp Assay to Detect TMEM16A Activity in Recombinant Cells
Cell Culture and Preparation
Fisher rat thyroid (FRT) cells stably expressing human TMEM16A (TMEM16Aabc variant; Dr Luis Galietta, Insituto Giannina, Italy) were cultured in T-75 flasks in Hams F-12 media with Coon's modification (Sigma) supplemented with 10% (v/v) foetal bovine serum, penicillin-streptomycin (10,000 U/mL/10000 μg/mL), G-418 (750 μg/mL), L-glutamine (2 mM) and sodium bicarbonate solution (7.5% v/v). At ˜90% confluence cells were harvested for experiments by detachment with a 2:1 (v/v) mixture of Detachin (BMS Biotechnology) and 0.25% (w/v) trypsin-EDTA. Cells were diluted to a density of 3.5-4.5×10^6 cells/mL with media consisting of CHO-S-SFM II (Sigma), 25 mM HEPES (Sigma) and Soy bean trypsin inhibitor (Sigma).
Whole-Cell Patch Clamp Recording
FRT-TMEM16A cells were whole-cell patch clamped using an automated planar patch clamp system (Qpatch, Sophion). Briefly, once high resistance (GOhm) seals were established between the cells and the planar recording array the patch was ruptured using suction pulses to establish the whole-cell recording configuration of the patch clamp technique. The assay employed the following solutions (all reagents Sigma): • Intracellular solution (mM): N-methyl-D-glucamine 130, CaCl2 18.2, MgCl2 1, HEPES 10, EGTA 10, BAPTA 20, Mg-ATP 2, pH 7.25, 325mOsm with sucrose. • Extracellular solution (mM): N-methyl-D-glucamine 130, CaCl2 2, MgCl2 1, HEPES 10, pH 7.3, 320 mOsm with sucrose.
The intracellular solution buffers intracellular calcium at levels required to give ˜20% activation of the maximal TMEM16A mediated current (EC20 for calcium ions). Cells were voltage clamped at a holding potential of −70 mV and a combined voltage step (to +70 mV)/ramp (−90 my to +90 mV) was applied at 0.05 Hz. After a period of current stabilisation test compounds, solubilised in 100% (v/v) DMSO and subsequently diluted into extracellular solution, were applied to generate a cumulative concentration response curve. Each concentration of test compound was incubated for 5 minutes before addition of the next concentration. After the final concentration was tested a supramaximal concentration of either a known active positive modulator or the TMEM16A inhibitor, CaCCinhA01 (Del La Fuente et al, 2008) was added to define the upper and lower limits of the assay.
Compound activity was quantified by measuring the increase in current upon compound addition and expressing this as a percentage increase of baseline TMEM16A current level. Percentage increases in current were determined for each concentration and the data plotted as a function of concentration using either the Qpatch software or Graphpad Prism v6.05 providing the concentration which gave 50% of its maximal effect (EC50) and maximum efficacy (percentage of baseline increase).
In FIG. 1, IBL equals baseline current, I[#1] equals the peak current during test compound concentration 1 incubation period and so on.
Peak TMEM16A current at +70 mV was plotted as a function of time over the assay period. Baseline current (IBL) was measured after a period of stabilisation. The increase in current for each compound addition was determined by taking the peak current during the incubation period and subtracting the current from the previous recording period and then expressing this as a percentage of the baseline current. For test compound concentration 1 in FIG. 1 this is:
For each additional concentration tested the increase in current was determined by subtracting the current from the previous incubation period and normalising the baseline value—for test concentration 2 in FIG. 1 this is:
The values for each test concentration were plotted as a cumulative function of concentration e.g. for test concentration two this would be the sum of the peak changes measured during concentration one plus concentration two.

Compound	activation at 3.33 µM	EC50
CC(C)(C)NC(=O)c1csc(NC(=O)Cc2cc(Cl)ccc2O)c1 [Example 1.1, N-tert-Butyl-5-[[2-(5-chloro-2-hydroxy-phenyl)acetyl]amino]thiophene-3-carboxamide]	184%	440 nM
CC(C)(C)C(=O)Nc1cc(NC(=O)Cc2cc(Cl)ccc2O)ccn1 [Example 7, N-[4-[[2-(5-Chloro-2-hydroxy-phenyl)acetyl]amino]-2-pyridyl]-2,2-dimethyl-propanamide]	156%	615 nM
CC(C)(C#N)NC(=O)c1ccc(NC(=O)Cc2cc(O)c(C(C)(C)C)cc2F)s1 [Example 8, 5-[[2-(4-tert-Butyl-2-fluoro-5-hydroxy-phenyl)acetyl]amino]-N-(1-cyano-1-methyl-ethyl)thiophene-2-carboxamide]	134%	85 nM
CC(C)(C)C(=O)Nc1ccnc(C(=O)NCc2cc(Cl)ccc2O)c1 [Example 3, N-[(5-Chloro-2-hydroxy-phenyl)methyl]-4-(2,2-dimethylpropanoylamino)pyridine-2-carboxamide]	81.3%	–
O=C(Cc1cc(Cl)ccc1O)Nc1ccnc(NC(=O)C2CCCCC2)c1 [Example 7.1, N-[4-[[2-(5-Chloro-2-hydroxy-phenyl)acetyl]amino]-2-pyridyl]cyclohexane carboxamide]	120%	1110 nM
CC(C)(C)NC(=O)c1cc(C(=O)NCc2ccccc2O)ccn1 [Example 4, N2-tert-Butyl-N4-[(2-hydroxyphenyl)methyl]pyridine-2,4-dicarboxamide]	35.2%	–
CC(C)(C)NC(=O)c1cccc(C(=O)NCc2ccccc2O)c1 [Example 5, N1-tert-Butyl-N3-[(2-hydroxyphenyl)methyl]benzene-1,3-dicarboxamide]	41.2%	2910 nM
CC(C)(C)NC(=O)c1cc(NC(=O)Cc2cc(Cl)ccc2O)cs1 [Example 1.2, N-tert-Butyl-4-[[2-(5-chloro-2-hydroxy-phenyl)acetyl]amino]thiophene-2-carboxamide]	237%	400 nM
CC(C)(C)C(=O)Nc1cccc(NC(=O)Cc2cc(Cl)ccc2O)c1 [Example 6, N-[3-[[2-(5-Chloro-2-hydroxy-phenyl)acetyl]amino]phenyl]-2,2-dimethyl-propanamide]	68.1%	992 nM
CC(C)(C)C(=O)Nc1cccc(C(=O)NCc2cc(Cl)ccc2O)c1 [Example 2, N-[(5-Chloro-2-hydroxy-phenyl)methyl]-3-(2,2-dimethylpropanoylamino)benzamide]	127%	–
CC(C)(C)NC(=O)c1ccc(NC(=O)Cc2cc(Cl)ccc2O)s1 [Example 1, N-tert-Butyl-5-[[2-(5-chloro-2-hydroxy-phenyl)acetyl]amino]thiophene-2-carboxamide]	107%	42 nM
CC(C)(CO)c1cc(F)c(CC(=O)Nc2ccc(C(=O)NC3(C(F)(F)F)CC3)s2)cc1O [Example 9, 5-[[2-[2-Fluoro-5-hydroxy-4-(2-hydroxy-1,1-dimethyl-ethyl)phenyl]acetyl]amino]-N-[1-(trifluoromethyl)cyclopropyl]thiophene-2-carboxamide]	134%	98 nM
